Values after ≈ are worked out from the molar mass of the structure shown.
Columns and labels:
S. aureus Smith = test: In vitro antibacterial activity (MIC), S. aureus Smith; conditions: Staphylococcus aureus, 18 h
N. catarrhalis 8193 = test: In vitro antibacterial activity (MIC), N. catarrhalis 8193; conditions: 18 h
K. pneumoniae 10031 = test: In vitro antibacterial activity (MIC), K. pneumoniae 10031; conditions: Klebsiella pneumoniae, 10031, 18 h
P. vulgaris 6896 = test: In vitro antibacterial activity (MIC), P. vulgaris 6896; conditions: Proteus vulgaris, 6896, 18 h
S. aureus 53-180 = test: In vitro antibacterial activity (MIC), S. aureus 53-180; conditions: Staphylococcus aureus, 53180, 18 h
S. paratyphi 11737 = test: In vitro antibacterial activity (MIC), S. paratyphi 11737; format: cell-based; conditions: Salmonella enterica, 18 h
E. coli 9637 = test: In vitro antibacterial activity (MIC), E. coli 9637; conditions: Escherichia coli, 9637, 18 h

## Cc1cc(-n2ccc3c4c(N)nc(N)nc4ccc32)c2ccccc2n1 [Example 91]
S. aureus Smith
  MIC: 0.061 µg/mL (≈ 0.179 µM)
N. catarrhalis 8193
  MIC: 0.031 µg/mL (≈ 0.0911 µM)
K. pneumoniae 10031
  MIC: 0.061 µg/mL (≈ 0.179 µM)
P. vulgaris 6896
  MIC: 3.9 µg/mL (≈ 11.5 µM)
S. aureus 53-180
  MIC: 0.061 µg/mL (≈ 0.179 µM)
S. paratyphi 11737
  MIC: 1.95 µg/mL (≈ 5.73 µM)
E. coli 9637
  MIC: 1.95 µg/mL (≈ 5.73 µM)

## Cc1nc2ccccc2nc1-n1ccc2c3c(N)nc(N)nc3ccc21 [Example 92]
S. aureus Smith
  MIC: 1.95 µg/mL (≈ 5.71 µM)
N. catarrhalis 8193
  MIC: 0.122 µg/mL (≈ 0.357 µM)
K. pneumoniae 10031
  MIC: 0.976 µg/mL (≈ 2.86 µM)
P. vulgaris 6896
  MIC: > 250 µg/mL
S. aureus 53-180
  MIC: 0.488 µg/mL (≈ 1.43 µM)
S. paratyphi 11737
  MIC: > 250 µg/mL
E. coli 9637
  MIC: 7.81 µg/mL (≈ 22.9 µM)

## Nc1nc(N)c2c(ccc3c2ccn3-c2ccccc2C(F)(F)F)n1 [Example 93]
S. aureus Smith
  MIC: 0.061 µg/mL (≈ 0.178 µM)
N. catarrhalis 8193
  MIC: 0.0076 µg/mL (≈ 0.0221 µM)
K. pneumoniae 10031
  MIC: 0.061 µg/mL (≈ 0.178 µM)
P. vulgaris 6896
  MIC: 1.95 µg/mL (≈ 5.68 µM)
S. aureus 53-180
  MIC: 0.031 µg/mL (≈ 0.0903 µM)
S. paratyphi 11737
  MIC: 0.976 µg/mL (≈ 2.84 µM)
E. coli 9637
  MIC: 0.244 µg/mL (≈ 0.711 µM)

## Nc1nc(N)c2c(ccc3c2ccn3-c2ccc([N+](=O)[O-])cc2C(F)(F)F)n1 [Example 94]
S. aureus Smith
  MIC: 0.122 µg/mL (≈ 0.314 µM)
N. catarrhalis 8193
  MIC: 0.061 µg/mL (≈ 0.157 µM)
K. pneumoniae 10031
  MIC: 0.488 µg/mL (≈ 1.26 µM)
P. vulgaris 6896
  MIC: 125 µg/mL (≈ 322 µM)
S. aureus 53-180
  MIC: 0.122 µg/mL (≈ 0.314 µM)
S. paratyphi 11737
  MIC: 62.5 µg/mL (≈ 161 µM)
E. coli 9637
  MIC: 31.3 µg/mL (≈ 80.6 µM)

## Nc1nc(N)c2c(ccc3c2ccn3-c2cc(-c3ccccc3)nc3ccccc23)n1 [Example 95]
S. aureus Smith
  MIC: 31.3 µg/mL (≈ 77.8 µM)
N. catarrhalis 8193
  MIC: 15.6 µg/mL (≈ 38.8 µM)
K. pneumoniae 10031
  MIC: 250 µg/mL (≈ 621 µM)
P. vulgaris 6896
  MIC: > 250 µg/mL
S. aureus 53-180
  MIC: 7.81 µg/mL (≈ 19.4 µM)
S. paratyphi 11737
  MIC: > 250 µg/mL
E. coli 9637
  MIC: 250 µg/mL (≈ 621 µM)

## Nc1ccc(-n2ccc3c4c(N)nc(N)nc4ccc32)cc1 [Example 96, 7-(4-Aminophenyl)-7H-pyrrolo[3,2-f]-quinazaline-1,3-diamine]
S. aureus Smith
  MIC: 0.488 µg/mL (≈ 1.68 µM)
N. catarrhalis 8193
  MIC: 0.0152 µg/mL (≈ 0.0524 µM)
K. pneumoniae 10031
  MIC: 0.031 µg/mL (≈ 0.107 µM)
P. vulgaris 6896
  MIC: 0.976 µg/mL (≈ 3.36 µM)
S. aureus 53-180
  MIC: 0.244 µg/mL (≈ 0.84 µM)
S. paratyphi 11737
  MIC: 0.488 µg/mL (≈ 1.68 µM)
E. coli 9637
  MIC: 0.244 µg/mL (≈ 0.84 µM)

## Nc1nc(N)c2c(ccc3c2ccn3-c2nc3ccccc3s2)n1 [Example 97, 7-(2-Benzothiazolyl)-7H-pyrrolo-[3,2-f]quinazoline-1,3-diamine]
S. aureus Smith
  MIC: 250 µg/mL (≈ 752 µM)
N. catarrhalis 8193
  MIC: 0.488 µg/mL (≈ 1.47 µM)
K. pneumoniae 10031
  MIC: 62.5 µg/mL (≈ 188 µM)
P. vulgaris 6896
  MIC: > 250 µg/mL
S. aureus 53-180
  MIC: 125 µg/mL (≈ 376 µM)
S. paratyphi 11737
  MIC: > 250 µg/mL
E. coli 9637
  MIC: > 250 µg/mL

## Cc1cc2c3c(N)nc(N)nc3ccc2n1C [Example 99]
S. aureus Smith
  MIC: 31.3 µg/mL (≈ 138 µM)
N. catarrhalis 8193
  MIC: 0.061 µg/mL (≈ 0.268 µM)
K. pneumoniae 10031
  MIC: 0.244 µg/mL (≈ 1.07 µM)
P. vulgaris 6896
  MIC: 0.976 µg/mL (≈ 4.29 µM)
S. aureus 53-180
  MIC: 31.3 µg/mL (≈ 138 µM)
S. paratyphi 11737
  MIC: 1.95 µg/mL (≈ 8.58 µM)
E. coli 9637
  MIC: 0.244 µg/mL (≈ 1.07 µM)

## Cc1cc2c3c(N)nc(N)nc3ccc2n1Cc1cccc(C#N)c1 [Example 101]
S. aureus Smith
  MIC: 0.122 µg/mL (≈ 0.372 µM)
N. catarrhalis 8193
  MIC: 0.0038 µg/mL (≈ 0.0116 µM)
K. pneumoniae 10031
  MIC: 0.061 µg/mL (≈ 0.186 µM)
P. vulgaris 6896
  MIC: 3.9 µg/mL (≈ 11.9 µM)
S. aureus 53-180
  MIC: 0.061 µg/mL (≈ 0.186 µM)
S. paratyphi 11737
  MIC: 3.9 µg/mL (≈ 11.9 µM)
E. coli 9637
  MIC: 0.488 µg/mL (≈ 1.49 µM)

## Cc1cc2c3c(N)nc(N)nc3ccc2n1Cc1ccc(C#N)cc1 [Example 102]
S. aureus Smith
  MIC: 0.976 µg/mL (≈ 2.97 µM)
N. catarrhalis 8193
  MIC: 0.061 µg/mL (≈ 0.186 µM)
K. pneumoniae 10031
  MIC: 0.244 µg/mL (≈ 0.743 µM)
P. vulgaris 6896
  MIC: 31.3 µg/mL (≈ 95.3 µM)
S. aureus 53-180
  MIC: 0.976 µg/mL (≈ 2.97 µM)
S. paratyphi 11737
  MIC: 7.81 µg/mL (≈ 23.8 µM)
E. coli 9637
  MIC: 1.95 µg/mL (≈ 5.94 µM)

## Nc1nc(N)c2c(ccc3c2cc(Cl)n3Cc2ccccc2)n1 [Example 104, 8-Chloro-7-(phenylmethyl)-7H-pyrrolo-[3,2-f]quinazoline-1,3-diamine]
S. aureus Smith
  MIC: 3.9 µg/mL (≈ 12 µM)
N. catarrhalis 8193
  MIC: 0.061 µg/mL (≈ 0.188 µM)
K. pneumoniae 10031
  MIC: 0.244 µg/mL (≈ 0.754 µM)
P. vulgaris 6896
  MIC: 31.3 µg/mL (≈ 96.7 µM)
S. aureus 53-180
  MIC: 0.976 µg/mL (≈ 3.01 µM)
S. paratyphi 11737
  MIC: 7.81 µg/mL (≈ 24.1 µM)
E. coli 9637
  MIC: 3.9 µg/mL (≈ 12 µM)

## Nc1nc(N)c2c(ccc3[nH]c(-c4ccccc4)cc32)n1 [Example 105, 8-Phenyl-7H-pyrrolo[3,2-f]-quinazoline-1,3-diamine]
S. aureus Smith
  MIC: 7.81 µg/mL (≈ 28.4 µM)
N. catarrhalis 8193
  MIC: 62.5 µg/mL (≈ 227 µM)
K. pneumoniae 10031
  MIC: 31.3 µg/mL (≈ 114 µM)
P. vulgaris 6896
  MIC: > 250 µg/mL
S. aureus 53-180
  MIC: 15.6 µg/mL (≈ 56.7 µM)
S. paratyphi 11737
  MIC: 125 µg/mL (≈ 454 µM)
E. coli 9637
  MIC: 62.5 µg/mL (≈ 227 µM)

## Cn1c(-c2ccccc2)cc2c3c(N)nc(N)nc3ccc21 [Example 106, 7-Methyl-8-phenyl-7H-pyrrolo[3,2-f]-quinazoline-1,3-diamine]
S. aureus Smith
  MIC: 62.5 µg/mL (≈ 216 µM)
N. catarrhalis 8193
  MIC: 31.3 µg/mL (≈ 108 µM)
K. pneumoniae 10031
  MIC: 3.9 µg/mL (≈ 13.5 µM)
P. vulgaris 6896
  MIC: > 250 µg/mL
S. aureus 53-180
  MIC: 125 µg/mL (≈ 432 µM)
S. paratyphi 11737
  MIC: > 250 µg/mL
E. coli 9637
  MIC: > 250 µg/mL

## Nc1nc(N)c2c(ccc3[nH]c4c(c32)CCCC4)n1 [Example 107, 8,9,10,11-Tetrahydro-7H-pyrimido-[4,5-c]carbazole-1,3-diamine]
S. aureus Smith
  MIC: 62.5 µg/mL (≈ 247 µM)
N. catarrhalis 8193
  MIC: 125 µg/mL (≈ 493 µM)
K. pneumoniae 10031
  MIC: 125 µg/mL (≈ 493 µM)
P. vulgaris 6896
  MIC: > 250 µg/mL
S. aureus 53-180
  MIC: 125 µg/mL (≈ 493 µM)
S. paratyphi 11737
  MIC: 125 µg/mL (≈ 493 µM)
E. coli 9637
  MIC: 125 µg/mL (≈ 493 µM)

## Nc1nc(N)c2c(ccc3c2c2c(n3Cc3ccccc3)CCCC2)n1 [Example 108, 8,9,10,11-Tetrahydro-7-(phenylmethyl)-7H-pyrimido[4,5-c]carbazole-1,3-diamine]
S. aureus Smith
  MIC: > 250 µg/mL
N. catarrhalis 8193
  MIC: 0.122 µg/mL (≈ 0.355 µM)
K. pneumoniae 10031
  MIC: > 250 µg/mL
P. vulgaris 6896
  MIC: > 250 µg/mL
S. aureus 53-180
  MIC: 250 µg/mL (≈ 728 µM)
S. paratyphi 11737
  MIC: > 250 µg/mL
E. coli 9637
  MIC: > 250 µg/mL

## Cn1c2c(c3c4c(N)nc(N)nc4ccc31)CCCC2 [Example 109, 8,9,10,11-Tetrahydro-7-methyl-7H-pyrimido[4,5-c]carbazole-1,3-diamine]
S. aureus Smith
  MIC: 62.5 µg/mL (≈ 234 µM)
N. catarrhalis 8193
  MIC: 3.9 µg/mL (≈ 14.6 µM)
K. pneumoniae 10031
  MIC: 62.5 µg/mL (≈ 234 µM)
P. vulgaris 6896
  MIC: > 250 µg/mL
S. aureus 53-180
  MIC: 62.5 µg/mL (≈ 234 µM)
S. paratyphi 11737
  MIC: 250 µg/mL (≈ 935 µM)
E. coli 9637
  MIC: > 250 µg/mL

Source: patent US4118561A, “7-(Substituted)-7H-pyrrolo[3,2-f]quinazoline-1,3-diamines” (priority 1977, dated 1978)
